Measured values: patent US11078499B2, “Host cells and methods for producing toluene biochemically” (The Regents of the University of California, priority 2018, dated 2021)

Test system: PhdB
Experiment: Assays testing whether PhdB could decarboxylate o-, m-, or p-hydroxyphenylacetate, equimolar with phenylacetic acid-2-13C
Assay type: biochemical, Acidobacteria strain Tolsyn
Details: for PhdB activity on substrate: relative to phenylacetate, equimolar 2.5 mM
Method: Analogous assays with o- and m-hydroxyphenylacetate similarly indicated very low (in this case, undetectable) PhdB activity for these hydroxyphenylacetate isomers, whereas labeled toluene is easily detected.
Assays for phenylacetate decarboxylase activity were performed under strictly anaerobic conditions within a glove box. Assays, which were performed in 4-mL glass vials sealed with 13-mm diameter PTFE Mininert screw-cap valves (Sigma-Aldrich), contained […] PhdA in assay buffer [50 mM TRIS (pH 7.5), 150 mM NaCl, 1 mM MgCl2, 5 mM (NH4)2SO4, 5 mM DTT)], to which 2 mM dithionite was added and incubated for ˜1 hour, followed by the addition of 2 mM SAM, 2.5 μM PhdB in assay buffer, and 2.5 mM phenylacetic acid-2-^13C in a final volume of 1 or 1.5 mL (depending on the specific experiment). Quantitative standards contained the same headspace/liquid ratios as assays and a dimensionless Henry's constant of 0.27^43 was used to calculate aqueous concentration. Negative controls were run concurrently and were identical except for the absence of SAM (FIG. 6). The vials were shaken on a tabletop orbital shaker at low speed. Gaseous headspace samples (100 μL) were taken within the glove box using a 500-μL gastight syringe (Sample-Lok series A-2; Sigma-Aldrich) and analyzed immediately by GC/MS, as described previously^8. Briefly, toluene was analyzed by static headspace, electron ionization (EI) GC/MS using a model 7890A GC (Agilent, Santa Clara, Calif.) with a DB-5 fused silica capillary column (30-m length, 0.25-mm inner diameter, 0.25-μm film thickness; Agilent) coupled to an HP 5975C series quadrupole mass spectrometer. As described elsewhere^8, the identity of [methyl-^13C]toluene was confirmed with the expected m/z 93/92 ratio of 0.6. Replicates involved separate assays rather than multiple analyses of a given assay sample. In assays testing whether PhdB could decarboxylate o-, m-, or p-hydroxyphenylacetate to o-, m-, or p-cresol, conditions were as described above except that equimolar amounts (2.5 mM) of o-, m-, or p-hydroxyphenylacetic acid (Sigma) and phenylacetic acid-2-^13C were added, and GC/MS analysis of o-, m-, or p-cresol in 1-μL liquid injections of concentrated hexane extracts were conducted as described previously^8. The identity of o-, m-, or p-cresol was assessed using retention time and the expected m/z 108/107 ratio of 1.16, 1.05, or 0.83, respectively, based on authentic standards.

| Structure (SMILES) | p-cresol level relative to that expected if PhdB activity were comparable to phenylacetate (equimolar phenylacetate and p-hydroxyphenylacetate (2.5 mM) with PhdA, PhdB and SAM) | PhdB activity on substrate |
| --- | --- | --- |
| O=C(O)Cc1ccc(O)cc1 [p-hydroxyphenylacetate] | approximately 100 fold lower | far lower activity |
| O=C(O)Cc1ccccc1O [o-hydroxyphenylacetate, o-hydroxyphenylacetic acid] |  | undetectable |
| O=C(O)Cc1cccc(O)c1 [m-hydroxyphenylacetate, m-hydroxyphenylacetic acid] |  | undetectable |
